Columns and labels:
HL-60 = assay: In vitro antitumor activity against HL60 (Human leukemia) cells.; assay type: functional, cell-based
L1210 = assay: In vitro antitumor activity against L1210 (murine leukemia) cells.; assay type: functional, cell-based; conditions: Mus musculus
Human alphaherpesvirus 1 = assay: Antiviral activity against herpes simplex virus-1.; assay type: functional, organism-based
Human alphaherpesvirus 2 = assay: Antiviral activity against herpes simplex virus-2.; assay type: functional, organism-based

| Structure (SMILES) | IC50 (HL-60) [µM] | IC50 (L1210) [µM] | IC50 (Human alphaherpesvirus 1) [µM] | IC50 (Human alphaherpesvirus 2) [µM] |
| --- | --- | --- | --- | --- |
| Nc1ccn([C@@H]2O[C@H](CO)[C@@H](O)[C@@H]2O)c(=O)n1 [CYTARABINE] | – | – | 0.3 | 2 |
| Nc1nc2c(ncn2COCCO)c(=O)[nH]1 [ACYCLOVIR] | – | – | 0.2 | 2.1 |
| COc1cc(C(F)(F)F)cc2nccc(O)c12 | > 30 | > 40 | > 100 | > 100 |
| COc1ccc(C)c2nccc(O)c12 | > 30 | > 40 | > 100 | > 100 |
| COc1cc2c(O)ccnc2cc1O | > 30 | > 40 | > 100 | > 100 |
| COc1cc2nccc(O)c2c(O)c1OC | > 30 | > 40 | > 100 | > 100 |
| Cc1ccc(O)c2c(O)ccnc12 | > 30 | > 40 | 27.1 | > 100 |
| COc1cc2c(=O)ccn(C)c2cc1OC | > 30 | > 40 | > 100 | > 100 |
| COc1cc(OC)c2c(=O)cc[nH]c2c1 | > 30 | > 40 | – | – |
| Oc1ccnc2cc(C(F)(F)F)cc(O)c12 | > 30 | > 40 | – | – |
| COc1ccc(OC)c2c(O)ccnc12 | > 30 | > 40 | > 100 | > 100 |
| COc1cc2nccc(O)c2cc1OC | > 30 | > 40 | > 100 | > 100 |
| COc1cc2nccc(O)c2c(OC)c1OC | > 30 | > 40 | > 100 | > 100 |

Other lines, results leading:

| IC50 (HL-60) [µM] | IC50 (L1210) [µM] | IC50 (Human alphaherpesvirus 1) [µM] | IC50 (Human alphaherpesvirus 2) [µM] | Structure (SMILES) |
| --- | --- | --- | --- | --- |
| > 30 | > 40 | 29.4 | 29.4 | COc1cc(C(F)(F)F)c2c(O)ccnc2c1 |
| > 30 | > 40 | > 100 | > 100 | COc1cc2c(c(O)c1OC)c(=O)ccn2C |
| > 30 | > 40 | – | – | COc1cc(O)c2c(O)ccnc2c1 |
| > 30 | > 40 | > 100 | > 100 | COc1ccc(Cl)c2nccc(O)c12 |
| 17.7 | – | 82.6 | > 100 | COc1ccc(O)c2c(O)ccnc12 |
| > 30 | > 40 | > 100 | > 100 | COc1cc(OC)c2c(=O)ccn(C)c2c1 |
| > 30 | > 40 | > 100 | > 100 | COc1ccc2c(O)ccnc2c1 |
| > 30 | > 40 | > 100 | > 100 | COc1ccc(O)c2c(=O)ccn(C)c12 |
| > 30 | > 40 | > 100 | > 100 | COc1cc2c(c(OC)c1OC)c(=O)ccn2C |
| > 30 | > 40 | 54 | 83 | Oc1cccc2nccc(O)c12 |
| 1.4 | 26.5 | – | – | COc1c(OC)c(OC)c2c(c1O)c(=O)c1ccc(O)c(OC)c1n2C [GLYFOLINE] |
